Laboratory results: patent US11357229B2, “Composition, uses and preparation process thereof, as well as method to ensure high corn crop yield” (priority 2011, dated 2022)

Assays:
Assay type in all cases: in vivo, Zea mays
[1] = test system: corn; assay: Ethephon applied to corn at stage V8, Nova Mutum; methomyl and pyraclostrobin+epoxyconazole added in all treatments; conditions: for Increased Yield: 100,000 plants/ha vs control at normal density
Procedure: Example 1—Effect of Growth Regulator Ethephon Applied to Corn at the Stage of Development V8
(§1) In the moment of the application, the insecticide methomyl (215 g ha^−1 a.i.) and the fungicide pyraclostrobin+epoxyconazole (99.75+37.5 g ha^−1 a.i.) were added in all treatments, including the control.

[2] = test system: corn; assay: Ethephon applied to corn at stage V6, Nova Mutum; chlorantraniliprole and cyproconazole+azoxystrobin added in all treatments; conditions: for Increased Yield: 100,000 plants/ha vs control at normal density
Procedure: Example 2—Effect of Growth Regulator Ethephon Applied to Corn at the Stage of Development V6
(§2) In the moment of the application, the insecticide chlorantraniliprole (25 g ha^−1 a.i.) and the fungicide cyproconazole+azoxystrobin (24+60 g ha^−1 a.i.) were added in all treatments, including the control.

[3] = test system: corn; assay: Ethephon+cyclanilide applied to corn at stage V8, Nova Mutum; methomyl and pyraclostrobin+epoxyconazole added in all treatments; conditions: estimation at 100,000 plants per hectare vs control at normal density of sowing (Table 6)
Procedure: Example 3—Effect of Growth Regulator Ethephon+Cyclanilide Applied to Corn at the Stage of Development V8
as §1

[4] = test system: corn; assay: BF 428-5 applied to corn at stage V6, Nova Mutum; chlorantraniliprole and cyproconazole+azoxystrobin added in all treatments; conditions: V6; 30 DAA; all treatments (Table 11)
Procedure: Example 6—Effect of Growth Regulator BF 428-5 Applied to Corn at the Stage of Development V6
as §2

[5] = test system: corn plants; assay: Growth regulator applied in the late vegetative stage of corn (V6-V9), inventors' finding; conditions: application in the late vegetative stage (V6-V9)
Source text: The solution to such problems related to corn crops would be to limit plant growth through the use of plant growth regulators, commonly used in other crops (cotton, wheat), but without any tradition in corn crop in order to provide the cultivation of high densities of corn plants per hectare with a view to achieving considerable increase in the crop's yield potential, as well as to improving pest and disease control in the crop.

O=P(O)(O)CCCl [Ethephon, 2-chloroethylphosphonic acid]
effects on the corn plant ([1]; V8): reduction in shoot length, increased formation of adventitious roots, strengthening of the stem, strengthening of the root system, increased ventilation in the culture, proper development of male and female inflorescences
effect on length and diameter of ears of corn ([1]; V8 (Table 1)): reduces
yield reduction ([1]; V8 (Table 1)): not significant
shoot length ([1]; V8, 30 DAA, all treatments with application of ethephon (Table 1)): less than or equal to 159.1 cm
Ear Diameter ([1]; V8, 216 g ha^−1 a.i.): 50.4 mm
Ear Length ([1]; V8, 216 g ha^−1 a.i.): 25.8 cm
Yield ([1]; V8, 216 g ha^−1 a.i.): 4335.6 kg/ha
Height (shoot length) ([1]; V8, 216 g ha^−1 a.i., 30 DAA): 157.3 cm
Population of corn plants 60,000 plants/ha, kg/corn plant ([1]; V8, 216 g ha^−1 a.i.): 0.072 kg/corn plant
Population of corn plants 100,000 plants/ha, kg/corn plant ([1]; V8, 216 g ha^−1 a.i.): 0.072 kg/corn plant
Yield estimates 100,000 plants/ha ([1]; V8, 216 g ha^−1 a.i.): 7226.0 kg/ha
Increased Yield ([1]; V8, 216 g ha^−1 a.i.): 42.4%
Ear Diameter ([1]; V8, 360 g ha^−1 a.i.): 51.6 mm
Ear Length ([1]; V8, 360 g ha^−1 a.i.): 25.6 cm
Yield ([1]; V8, 360 g ha^−1 a.i.): 4253.3 kg/ha
Height (shoot length) ([1]; V8, 360 g ha^−1 a.i., 30 DAA): 153.9 cm
Population of corn plants 60,000 plants/ha, kg/corn plant ([1]; V8, 360 g ha^−1 a.i.): 0.071 kg/corn plant
Population of corn plants 100,000 plants/ha, kg/corn plant ([1]; V8, 360 g ha^−1 a.i.): 0.071 kg/corn plant
Yield estimates 100,000 plants/ha ([1]; V8, 360 g ha^−1 a.i.): 7088.8 kg/ha
Increased Yield ([1]; V8, 360 g ha^−1 a.i.): 39.7%
Ear Diameter ([1]; V8, 576 g ha^−1 a.i.): 50.7 mm
Ear Length ([1]; V8, 576 g ha^−1 a.i.): 25.4 cm
Yield ([1]; V8, 576 g ha^−1 a.i.): 4680.0 kg/ha
Height (shoot length) ([1]; V8, 576 g ha^−1 a.i., 30 DAA): 152.2 cm
Population of corn plants 60,000 plants/ha, kg/corn plant ([1]; V8, 576 g ha^−1 a.i.): 0.078 kg/corn plant
Population of corn plants 100,000 plants/ha, kg/corn plant ([1]; V8, 576 g ha^−1 a.i.): 0.078 kg/corn plant
Yield estimates 100,000 plants/ha ([1]; V8, 576 g ha^−1 a.i.): 7800.0 kg/ha
Increased Yield ([1]; V8, 576 g ha^−1 a.i.): 53.7%
yield increases ([1]; V8, estimation at 100,000 plants per hectare vs control at normal density of sowing (Table 2)): more than 39%
effects on the corn plant ([2]; V6): reduction in shoot length, increased formation of adventitious roots, strengthening of the stem, strengthening of the root system, increased ventilation in the culture, proper development of male and female inflorescences
effect on length and diameter of ears of corn ([2]; V6 (Table 3)): reduces
yield reduction / increase ([2]; V6 (Table 3)): yield reduction was significant for some treatments, and the yield increase was also significant for some treatments
shoot length ([2]; V6, 30 DAA, all treatments with application of ethephon (Table 3)): less than or equal to 152.5 cm
Ear Diameter ([2]; V6, 216 g ha^−1 a.i.): 37.9 mm
Ear Length ([2]; V6, 216 g ha^−1 a.i.): 21.4 cm
Yield ([2]; V6, 216 g ha^−1 a.i.): 1906.7 kg/ha
Height (shoot length) ([2]; V6, 216 g ha^−1 a.i., 30 DAA): 144.3 cm
Population of corn plants 60,000 plants/ha, kg/corn plant ([2]; V6, 216 g ha^−1 a.i.): 0.032 kg/corn plant
Population of corn plants 100,000 plants/ha, kg/corn plant ([2]; V6, 216 g ha^−1 a.i.): 0.032 kg/corn plant
Yield estimates 100,000 plants/ha ([2]; V6, 216 g ha^−1 a.i.): 3177.8 kg/ha
Increased Yield ([2]; V6, 216 g ha^−1 a.i.): 10.1%
Ear Diameter ([2]; V6, 360 g ha^−1 a.i.): 36.7 mm
Ear Length ([2]; V6, 360 g ha^−1 a.i.): 21.1 cm
Yield ([2]; V6, 360 g ha^−1 a.i.): 3553.3 kg/ha
Height (shoot length) ([2]; V6, 360 g ha^−1 a.i., 30 DAA): 148.5 cm
Population of corn plants 60,000 plants/ha, kg/corn plant ([2]; V6, 360 g ha^−1 a.i.): 0.059 kg/corn plant
Population of corn plants 100,000 plants/ha, kg/corn plant ([2]; V6, 360 g ha^−1 a.i.): 0.059 kg/corn plant
Yield estimates 100,000 plants/ha ([2]; V6, 360 g ha^−1 a.i.): 5922.2 kg/ha
Increased Yield ([2]; V6, 360 g ha^−1 a.i.): 105.2%
Ear Diameter ([2]; V6, 576 g ha^−1 a.i.): 37.7 mm
Ear Length ([2]; V6, 576 g ha^−1 a.i.): 23.3 cm
Yield ([2]; V6, 576 g ha^−1 a.i.): 3540.0 kg/ha
Height (shoot length) ([2]; V6, 576 g ha^−1 a.i., 30 DAA): 144.9 cm
Population of corn plants 60,000 plants/ha, kg/corn plant ([2]; V6, 576 g ha^−1 a.i.): 0.059 kg/corn plant
Population of corn plants 100,000 plants/ha, kg/corn plant ([2]; V6, 576 g ha^−1 a.i.): 0.059 kg/corn plant
Yield estimates 100,000 plants/ha ([2]; V6, 576 g ha^−1 a.i.): 5900.0 kg/ha
Increased Yield ([2]; V6, 576 g ha^−1 a.i.): 104.4%
yield increases ([2]; V6, estimation at 100,000 plants per hectare vs control at normal density of sowing (Table 4)): more than 10.1%
yield increases [3]: more than 44.4%
shoot length [4]: less than or equal to 206.0 cm
root system [5]: stronger root system
